Measured values from US20050124607A1, “5-Substituted quinazolinone compounds useful as alpha 1A/B adrenergic receptor antagonists” (priority 2003, published 2005).

SMILES | melting point [°C]
COC[C@H]1CCCN1CCC1CCN(c2nc(=O)c3c(OC)c(OC)c(OC)cc3[nH]2)CC1 [Example 70, 5,6,7-Trimeth-oxy-2-{4-[2-((R)-2-meth-oxymethyl-pyr-rolidin-1-yl)-ethyl]-pipe-ridin-1-yl}-1H-quina-zolin-4-one] | 65 to 79.1
COc1cc2[nH]c(N3CCC(OCc4ccccc4S(=O)(=O)N(C)C)CC3)nc(=O)c2c(OC)c1OC [Example 77, N,N-Dimethyl-2-[1-(5,6,7-tri-methoxy-4-oxo-1,4-di-hydro-quinazolin-2-yl)-pipe-ridin-4-yloxy-methyl]-benzene-sulfonamide] | 186 to 188.2
COc1cc2[nH]c(N3CCC(Cc4cccc(C(=O)O)c4)CC3)nc(=O)c2c(OC)c1OC [Example 79, 3-[1-(5,6,7-Trimethoxy-4-oxo-1,4-di-hydro-quina-zolin-2-yl)-pipe-ridin-4-ylmethyl]-benzoic acid] | 245 to 249
COc1cc2[nH]c(N3CCC(OCc4cccc(N(S(C)(=O)=O)S(C)(=O)=O)c4)CC3)nc(=O)c2c(OC)c1OC [Example 80, N-Methane-sulfonyl-N-{3-[1-(5,6,7-tri-methoxy-4-oxo-1,4-di-hydro-quina-zolin-2-yl)-pipe-ridin-4-yloxy-methyl]-phenyl}-methane-sulfonamide] | 100.7 to 160.4
COc1cc2[nH]c(N3CCC(OCc4cccc(/N=C(\C)N(C)C)c4)CC3)nc(=O)c2c(OC)c1OC [Example 81, N,N-Dimethyl-N′-{3-[1-(5,6,7-tri-methoxy-4-oxo-1,4-di-hydro-quinazolin-2-yl)-pipe-ridin-4-yloxy-methyl]-phenyl}-acetamidine] | 56 to 64.9
COc1cc2[nH]c(N3CCc4c(cccc4/N=C(\C)N(C)C)C3)nc(=O)c2c(C)c1OC [Example 98, N′-[2-(6,7-Dimethoxy-5-meth-yl-4-oxo-1,4-di-hydro-quinazolin-2-yl)-1,2,3,4-tetra-hydro-iso-quinolin-5-yl]-N,N-di-methyl-acetamidine] | 270.9 to 273.5
COc1cc2[nH]c(N3CCc4ccc(/N=C(\C)N(C)C)cc4C3)nc(=O)c2c(OC)c1OC [Example 103, N,N-Dimethyl-N′-[2-(5,6,7-tri-methoxy-4-oxo-1,4-di-hydro-quinazolin-2-yl)-1,2,3,4-tetra-hydro-isoquinolin-7-yl]-acetamidine] | 115.8 to 120.1
COCCOc1c(OC)c(OC)cc2[nH]c(N3CCc4cc(OC)c(OC)cc4C3)nc(=O)c12 [Example 105, 2-(6,7-Dimethoxy-3,4-di-hydro-1H-isoquinolin-2-yl)-6,7-di-methoxy-5-(2-meth-oxy-ethoxy)-1H-quina-zolin-4-one] | 202.4 to 204.4
COc1cc2c(cc1OC)CN(c1nc(=O)c3c(OCC4CC4)c(OC)c(OC)cc3[nH]1)CC2 [Example 108, 5-Cyclopropylmethoxy-2-(6,7-di-methoxy-3,4-di-hydro-1H-isoquinolin-2-yl)-6,7-di-methoxy-1H-quinazolin-4-one] | 214 to 215.8
COc1cc2c(cc1OC)CN(c1nc(=O)c3c(OCCO)c(OC)c(OC)cc3[nH]1)CC2 [Example 111, 2-(6,7-Dimethoxy-3,4-di-hydro-1H-isoquinolin-2-yl)-5-(2-hy-droxy-ethoxy)-6,7-di-methoxy-1H-quinazolin-4-one] | 224 to 229
COc1cc2c(cc1OC)CN(c1nc(=O)c3c(OCCOCc4ccccc4)c(OC)c(OC)cc3[nH]1)CC2 [Example 112, 5-(2-Benzyloxy-ethoxy)-2-(6,7-di-methoxy-3,4-di-hydro-1H-isoquinolin-2-yl)-6,7-di-methoxy-1H-quinazolin-4-one] | 197 to 201.9

Next, values leading:

melting point [°C] | SMILES
238.7 to 241.9 | COc1cc2c(cc1OC)CN(c1nc(=O)c3c(Oc4ccccc4)c(OC)c(OC)cc3[nH]1)CC2 [Example 113, 2-(6,7-Dimethoxy-3,4-di-hydro-1H-isoquinolin-2-yl)-6,7-di-methoxy-5-phe-noxy-1H-quinazolin-4-one]
192.2 to 193.5 | CCCC(=N)Nc1cccc2c1CCN(c1nc(=O)c3c(OC)c(OC)c(OC)cc3[nH]1)C2 [Example 115, N-[2-(5,6,7-Trimethoxy-4-oxo-1,4-di-hydro-quina-zolin-2-yl)-1,2,3,4-tetra-hydro-isoquinolin-5-yl]-butyramidine]
223.9 to 225.9 | COc1cc2[nH]c(N3CCc4c(cccc4NC(=N)c4ccco4)C3)nc(=O)c2c(OC)c1OC [Example 117, N-[2-(5,6,7-Trimethoxy-4-oxo-1,4-di-hydro-quina-zolin-2-yl)-1,2,3,4-tetra-hydro-isoquinolin-5-yl]-furan-2-car-boxamidine]
220 to 225 | COc1cc2c(cc1OC)CN(c1nc(=O)c3c(-c4ccc(F)cc4)c(OC)c(OC)cc3[nH]1)CC2 [Example 120, 2-(6,7-Dimethoxy-3,4-di-hydro-1H-isoquino-lin-2-yl)-5-(4-fluoro-phe-nyl)-6,7-dimethoxy-1H-quina-zolin-4-one]
223.5 to 226.6 | COc1cc2[nH]c(N3CCc4c(cccc4/N=C(\C)N(C)C)C3)nc(=O)c2c(OC)c1OC [Example 122, N,N-Dimethyl-N′-[2-(5,6,7-tri-methoxy-4-oxo-1,4-di-hydro-quinazolin-2-yl)-1,2,3,4-tetra-hydro-iso-quinolin-5-yl]-acetamidine]
252.1 to 256.1 | COc1cc2[nH]c(N3CCc4c(cccc4NC(=N)C4CCC4)C3)nc(=O)c2c(C)c1OC [Example 123, N-[2-(6,7-Dimethoxy-5-meth-yl-4-oxo-1,4-di-hydro-quinazolin-2-yl)-1,2,3,4-tetra-hydro-isoquinolin-5-yl]-cyclo-butanecarboxamidine]
279 to 282 | COc1cc2[nH]c(N3CCc4c(cccc4NC(=N)c4ccco4)C3)nc(=O)c2c(C)c1OC [Example 124, N-[2-(6,7-Dimethoxy-5-meth-yl-4-oxo-1,4-di-hydro-quinazolin-2-yl)-1,2,3,4-tetra-hydro-iso-quinolin-5-yl]-furan-2-carboxamidine]
254.3 to 257.1 | CCCC(=N)Nc1cccc2c1CCN(c1nc(=O)c3c(C)c(OC)c(OC)cc3[nH]1)C2 [Example 125, N-[2-(6,7-Dimethoxy-5-meth-yl-4-oxo-1,4-di-hydro-quinazolin-2-yl)-1,2,3,4-tetra-hydro-isoquinolin-5-yl]-butyramidine]
176 to 177.1 | COc1cc2[nH]c(N3CCc4ccc(/N=C(\C)N(C)C)cc4C3)nc(=O)c2c(C)c1OC [Example 132, N′-[2-(6,7-Dimethoxy-5-meth-yl-4-oxo-1,4-di-hydro-quinazolin-2-yl)-1,2,3,4-tetra-hydro-isoquinolin-7-yl]-N,N-di-methyl-acetamidine]
260.8 to 269 | COc1cc2c(cc1OC)CN(c1nc(=O)c3c(F)c(OC)c(OC)cc3[nH]1)CC2 [Example 133, 2-(6,7-Dimethoxy-3,4-di-hydro-1H-isoquino-lin-2-yl)-5-fluoro-6,7-di-methoxy-1H-quina-zolin-4-one]
255.4 to 259.9 | COc1cc2c(cc1OC)CN(c1nc(=O)c3c(Cl)c(OC)c(OC)cc3[nH]1)CC2 [Example 134, 5-Chloro-2-(6,7-di-methoxy-3,4-dihydro-1H-iso-quinolin-2-yl)-6,7-di-methoxy-1H-quinazolin-4-one]
> 300 | COc1cc2[nH]c(N3CCc4c(ncnc4N4CCOCC4)C3)nc(=O)c2c(C)c1OC [Example 136, 6,7-Dimethoxy-5-meth-yl-2-(4-morpholin-4-yl-5,8-di-hydro-6H-py-rido[3,4-d]pyrimidin-7-yl)-1H-quina-zolin-4-one]
205.1 to 209.1 | COc1cc2[nH]c(N3CCCC3c3cccc(N4CCN=C4C)c3)nc(=O)c2c(OC)c1OC (stereo not drawn) [Example 138, 5,6,7-Trimethoxy-2-{2-[3-(2-meth-yl-4,5-di-hydro-imidazol-1-yl)-phe-nyl]-pyrrolidin-1-yl}-1H-quina-zolin-4-one]
188.6 to 191 | COc1cc2[nH]c(N3CCCC3c3cccc(NCCNC(C)=O)c3)nc(=O)c2c(OC)c1OC (stereo not drawn) [Example 139, N-(2-{3-[1-(5,6,7-Tri-methoxy-4-oxo-1,4-di-hydro-quinazolin-2-yl)-pyr-rolidin-2-yl]-phenyl-amino}-ethyl)-acetamide]
152.2 to 154.4 | COc1cc2[nH]c(N3CCC(c4cccc(/N=C(\C)N(C)C)c4)C3)nc(=O)c2c(C)c1OC (stereo not drawn) [Example 142, N′-{3-[1-(6,7-Di-methoxy-5-methyl-4-oxo-1,4-di-hydro-quina-zolin-2-yl)-pyr-rolidin-3-yl]-phenyl}-N,N-di-methyl-acetamidine]
270.9 to 273.5 | COc1cc2[nH]c(N3CCc4c(cccc4/N=C(/C)N(C)C)C3)nc(=O)c2c(C)c1OC [Example F-1, N′-[2-(6,7-Dimethoxy-5-methyl-4-oxo-1,4-dihydro-quinazolin-2-yl)-1,2,3,4-tetrahydro-isoquinolin-5-yl]-N,N-dimethyl-acetamidine]
